Test results from patent publication US20150274661A1, “INDOL-AMIDE COMPOUNDS AS BETA-AMYLOID INHBITORS” (Hoffmann-La Roche Inc., priority 2012, published 2015).

Test system: Aβ42 secretion
Assay: Cellular γ-secretase assay (inhibition of Aβ42 secretion)
Format: cell-based
Conditions: Homo sapiens, 22 h, human neuroglioma H4 cells overexpressing human APP, 22 hours incubation
Experimental: Cellular γ-Secretase Assay
The compounds were investigated in accordance with the test given hereinafter.
Human neuroglioma H4 cells overexpressing human APP were plated at 30,000 cells/well/200 μL in 96-well plates in IMDM media containing 10% FCS, […] Hygromycin B and incubated for 2 hours at 37° C., 5% CO2 prior to adding test compounds.
Compounds for testing were dissolved in 100% Me2SO yielding in a 10 mM stock solution. Typically 12 μL of these solutions were further diluted in 1000 μL of IMDM media (w/o FCS). Subsequent 1:1 dilutions gave a ten point dose response curve. 100 μL of each dilution was added to the cells in 96-well plates. Appropriate controls using vehicle only and reference compound were applied to this assay. The final concentration of Me2SO was 0.4%.
After incubation for 22 hours at 37° C., 5% CO2, 50 μL supernatant was transferred into round-bottom 96-well polypropylene plates for detection of Aβ42. 50 μL assay buffer (50 mM Tris/Cl, pH 7.4, 60 mM NaCl, 0.5% BSA, 1% TWEEN 20) was added to the wells followed by the addition of 100 μL of detection antibody (ruthenylated BAP15 0.0625 μg/mL in assay buffer). 50 μL of a premix of capture antibody (biotinylated 6E10 antibody, 1 μg/mL) and Streptavidin-coated magnetic beads (Dynal M-280, 0.125 mg/mL) were preincubated for 1 hour at room temperature before adding the assay plates. Assay plates were incubated on a shaker for 3 hours at room temperature and finally read in the Bioveris M8 Analyser according to the manufacturer's instructions (Bioveris).
IC50 values for inhibition of Aβ42 secretion were calculated by nonlinear regression fit analysis using XLfit 4.0 software (IDBS).

O=C(Nc1cncc(F)c1)c1cc2cc(C3CCN(CC4CC4)C3)ccc2[nH]1 (stereo not shown) [Example 79, 5-(1-(Cyclopropylmethyl)pyrrolidin-3-yl)-N-(5-fluoropyridin-3-yl)-1H-indole-2-carboxamide]
EC50: 981 nM

CN1CCC(c2ccc3[nH]c(C(=O)Nc4ccc(F)cc4)cc3c2)CC1 [Example 36, 5-(1-Methyl-piperidin-4-yl)-1H-indole-2-carboxylic acid (4-fluoro-phenyl)-amide]
EC50: 1090 nM

C[C@@H](c1ccc2[nH]c(C(=O)Nc3cc(F)cc(F)c3)cc2c1)[C@@H]1CCN(CC(F)(F)F)C1 [Example 120, N-(3,5-Difluorophenyl)-5-((R)-1-((S)-1-(2,2,2-trifluoroethyl)pyrrolidin-3-yl)ethyl)-1H-indole-2-carboxamide]
EC50: 7420 nM

C=C(CCN1CCCCC1)c1ccc2[nH]c(C(=O)Nc3cc(F)cc(F)c3)cc2c1 [Example 97, N-(3,5-Difluorophenyl)-5-(4-(piperidin-1-yl)but-1-en-2-yl)-1H-indole-2-carboxamide]
EC50: 1260 nM

N#CCN1CC[C@H](c2ccc3[nH]c(C(=O)Nc4cccc(F)c4)cc3c2)C1 [Example 108, (R)-5-(1-(Cyanomethyl)pyrrolidin-3-yl)-N-(3-fluorophenyl)-1H-indole-2-carboxamide]
EC50: 646 nM

C=C(c1ccc2[nH]c(C(=O)Nc3cc(F)cc(F)c3)cc2c1)C1CCN(Cc2ccccc2)C1 (stereo not shown) [Example 91, 5-(1-(1-Benzylpyrrolidin-3-yl)vinyl)-N-(3,5-difluorophenyl)-1H-indole-2-carboxamide]
EC50: 1490 nM

COc1cccc(NC(=O)c2cc3cc(C4CCN(C(C)C)CC4)ccc3[nH]2)c1 [Example 25, 5-(1-Isopropyl-piperidin-4-yl)-1H-indole-2-carboxylic acid (3-methoxy-phenyl)-amide]
EC50: 2680 nM

CC(C)N1CCC[C@H](c2ccc3[nH]c(C(=O)Nc4cccc(F)c4)cc3c2)C1 [Example 110, 5-((R)-1-Isopropyl-piperidin-3-yl)-1H-indole-2-carboxylic acid (3-fluoro-phenyl)-amide]
EC50: 116 nM

CC(C)N1CCCC(c2ccc3[nH]c(C(=O)Nc4cc(F)cc(Cl)c4)cc3c2)C1 (stereo not shown) [Example 30, N-(3-Chloro-5-fluorophenyl)-5-(1-isopropylpiperidin-3-yl)-1H-indole-2-carboxamide]
EC50: 742 nM

N#CCN1CCC(c2ccc3[nH]c(C(=O)Nc4cncc(F)c4)cc3c2)C1 (stereo not shown) [Example 80, 5-(1-Cyanomethyl-pyrrolidin-3-yl)-1H-indole-2-carboxylic acid (5-fluoro-pyridin-3-yl)-amide]
EC50: 942 nM

O=C(Nc1ccc(F)c(F)c1)c1cc2cc(C3=COCCC3)ccc2[nH]1 [Example 85, 5-(5,6-Dihydro-4H-pyran-3-yl)-1H-indole-2-carboxylic acid (3,4-difluoro-phenyl)-amide]
EC50: 445 nM

O=C(Nc1cccc(F)c1)c1cc2cc(C3CCN(Cc4ccccc4)C3)ccc2[nH]1 (stereo not shown) [Example 3, 5-(1-Benzylpyrrolidin-3-yl)-N-(3-fluorophenyl)-1H-indole-2-carboxamide]
EC50: 1240 nM

O=C(Nc1cccc(F)c1)c1cc2cc(C3CCN(CC(F)(F)F)C3)ccc2[nH]1 (stereo not shown) [Example 15, N-(3-Fluorophenyl)-5-(1-(2,2,2-trifluoroethyl)pyrrolidin-3-yl)-1H-indole-2-carboxamide]
EC50: 1240 nM

COc1ccc(NC(=O)c2cc3cc(C4CCN(C(C)C)CC4)ccc3[nH]2)cc1 [Example 26, 5-(1-Isopropyl-piperidin-4-yl)-1H-indole-2-carboxylic acid (4-methoxy-phenyl)-amide]
EC50: 10900 nM

C=CCN1CCC(c2ccc3[nH]c(C(=O)Nc4ccc(F)cc4)cc3c2)CC1 [Example 39, 5-[1-Allyl-piperidin-4-yl]-1H-indole-2-carboxylic acid (4-fluoro-phenyl)-amide]
EC50: 1320 nM

N#Cc1cc(F)cc(NC(=O)c2cc3cc(C4CCN(Cc5ccccc5)C4)ccc3[nH]2)c1 (stereo not shown) [Example 5, 5-(1-Benzylpyrrolidin-3-yl)-N-(3-cyano-5-fluorophenyl)-1H-indole-2-carboxamide]
EC50: 631 nM

CC(c1ccc2[nH]c(C(=O)Nc3cc(F)cc(F)c3)cc2c1)C1CCN(CC(F)(F)F)C1 (stereo not shown) [Example 96, N-(3,5-Difluorophenyl)-5-(1-(1-(2,2,2-trifluoroethyl)pyrrolidin-3-yl)ethyl)-1H-indole-2-carboxamide]
EC50: 7720 nM

CC(C)N1CCC(c2ccc3[nH]c(C(=O)Nc4ccccc4F)cc3c2)CC1 [Example 24, 5-(1-Isopropyl-piperidin-4-yl)-1H-indole-2-carboxylic acid (2-fluoro-phenyl)-amide]
EC50: 19400 nM

COC(=O)N1CCC(c2ccc3[nH]c(C(=O)Nc4ccc(F)cc4)cc3c2)CC1 [Example 41, 4-[2-(4-Fluoro-phenylcarbamoyl)-1H-indol-5-yl]-piperidine-1-carboxylic acid methyl ester]
EC50: 1910 nM

CC(C)N1CCCC(c2ccc3[nH]c(C(=O)Nc4cc(F)cc(C#N)c4)cc3c2)C1 (stereo not shown) [Example 31, 5-(1-Isopropyl-piperidin-3-yl)-1H-indole-2-carboxylic acid (3-cyano-5-fluoro-phenyl)-amide]
EC50: 2380 nM

O=C(Nc1cccc(F)c1)c1cc2cc(C3CCNC3)ccc2[nH]1 (stereo not shown) [Example 8, N-(3-Fluorophenyl)-5-(pyrrolidin-3-yl)-1H-indole-2-carboxamide]
EC50: 627 nM

Cc1cc(F)cc(NC(=O)c2cc3cc(C4CCCN(C(C)C)C4)ccc3[nH]2)c1 (stereo not shown) [Example 34, N-(3-Fluoro-5-methylphenyl)-5-(1-isopropylpiperidin-3-yl)-1H-indole-2-carboxamide]
EC50: 926 nM

C[C@H](CN1CCCC1)c1ccc2[nH]c(C(=O)Nc3cccc(F)c3)cc2c1 [Example 118]
EC50: 753 nM

O=C(Nc1cc(F)cc(F)c1)c1cc2cc(C3CCN(Cc4ccccc4)C3)ccc2[nH]1 (stereo not shown) [Example 1, 5-(1-Benzylpyrrolidin-3-yl)-N-(3,5-difluorophenyl)-1H-indole-2-carboxamide]
EC50: 795 nM

O=C(Nc1ccc(F)cc1)c1cc2cc(C3CCN(C(=O)c4ccccc4)CC3)ccc2[nH]1 [Example 35, 5-(1-Benzoyl-piperidin-4-yl)-1H-indole-2-carboxylic acid (4-fluoro-phenyl)-amide]
EC50: 1390 nM

O=C(Nc1cc(F)cc(F)c1)c1cc2cc(C3CCCNC3)ccc2[nH]1 (stereo not shown) [Example 62, 5-Piperidin-3-yl-1H-indole-2-carboxylic acid (3,5-difluoro-phenyl)-amide]
EC50: 354 nM

O=C(Nc1cncc(F)c1)c1cc2cc(C3CCN(Cc4ccccc4)C3)ccc2[nH]1 (stereo not shown) [Example 74, 5-(1-Benzyl-pyrrolidin-3-yl)-1H-indole-2-carboxylic acid (5-fluoro-pyridin-3-yl)-amide]
EC50: 1860 nM

C[C@@H](CN1CCCC1)c1ccc2[nH]c(C(=O)Nc3cccc(F)c3)cc2c1 [Example 119]
EC50: 1730 nM

CC(C)N1CCC(Nc2ccc3[nH]c(C(=O)Nc4ccc(F)c(F)c4)cc3c2)CC1 [Example 65, 5-(1-Isopropyl-piperidin-4-ylamino)-1H-indole-2-carboxylic acid (3,4-difluoro-phenyl)-amide]
EC50: 2950 nM

O=C(Nc1cc(F)cc(F)c1)c1cc2cc(C3CCCN(C(=O)c4ccccc4)C3)ccc2[nH]1 (stereo not shown) [Example 55, 5-(1-Benzoyl-piperidin-3-yl)-1H-indole-2-carboxylic acid (3,5-difluoro-phenyl)-amide]
EC50: 449 nM

COCCN1CCCC(c2ccc3[nH]c(C(=O)Nc4cc(F)cc(F)c4)cc3c2)C1 (stereo not shown) [Example 60, 5-[1-(2-Methoxy-ethyl)-piperidin-3-yl]-1H-indole-2-carboxylic acid (3,5-difluoro-phenyl)-amide]
EC50: 1380 nM

CC(C)N1CCCC(c2ccc3[nH]c(C(=O)Nc4cccc(F)c4)cc3c2)C1 (stereo not shown) [Example 46, 5-(1-Isopropyl-piperidin-3-yl)-1H-indole-2-carboxylic acid (3-fluoro-phenyl)-amide]
EC50: 588 nM

CC(C)N1CCC(c2ccc3[nH]c(C(=O)Nc4ccc(F)nc4)cc3c2)CC1 [Example 32, 5-(1-Isopropyl-piperidin-4-yl)-1H-indole-2-carboxylic acid (6-fluoro-pyridin-3-yl)-amide]
EC50: 8150 nM

O=C(Nc1cccc(F)c1)c1cc2cc(C3CCCNC3)ccc2[nH]1 (stereo not shown) [Example 69, N-(3-Fluorophenyl)-5-(piperidin-3-yl)-1H-indole-2-carboxamide]
EC50: 662 nM

O=C(Nc1cccc(F)c1)c1cc2cc(C3CCCN(CC(F)(F)F)C3)ccc2[nH]1 (stereo not shown) [Example 73, N-(3-Fluorophenyl)-5-(1-(2,2,2-trifluoroethyl)piperidin-3-yl)-1H-indole-2-carboxamide]
EC50: 9290 nM

C=CCCN1CCC(c2ccc3[nH]c(C(=O)Nc4cncc(F)c4)cc3c2)C1 (stereo not shown) [Example 78, 5-(1-(But-3-enyl)pyrrolidin-3-yl)-N-(5-fluoropyridin-3-yl)-1H-indole-2-carboxamide]
EC50: 927 nM

COCC(=O)N1CCC(c2ccc3[nH]c(C(=O)Nc4cncc(F)c4)cc3c2)C1 (stereo not shown) [Example 82, N-(5-Fluoropyridin-3-yl)-5-(1-(2-methoxyacetyl)pyrrolidin-3-yl)-1H-indole-2-carboxamide]
EC50: 1930 nM
